For assay [1], the target named is T1, Testis-specific serine/threonine-protein kinase 3 (Homo sapiens) (UniProt Q96PN8).
T1 sequence (whole entry): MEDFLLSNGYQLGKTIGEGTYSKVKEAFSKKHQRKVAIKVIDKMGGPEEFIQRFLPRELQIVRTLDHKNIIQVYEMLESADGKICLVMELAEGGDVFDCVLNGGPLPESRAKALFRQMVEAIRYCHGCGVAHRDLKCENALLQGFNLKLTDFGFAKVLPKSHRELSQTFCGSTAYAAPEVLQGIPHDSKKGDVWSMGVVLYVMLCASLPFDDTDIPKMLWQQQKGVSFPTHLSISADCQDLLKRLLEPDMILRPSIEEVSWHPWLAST
In words: Selectivity interaction (KinomeScan (DiscoverX)) EUB0000695a TSSK3. To be noted: at 100 nM.

Assay [2] relates to T2, Receptor-type tyrosine-protein kinase FLT3 (Homo sapiens), P36888 [R834Q].
T2 sequence (whole entry): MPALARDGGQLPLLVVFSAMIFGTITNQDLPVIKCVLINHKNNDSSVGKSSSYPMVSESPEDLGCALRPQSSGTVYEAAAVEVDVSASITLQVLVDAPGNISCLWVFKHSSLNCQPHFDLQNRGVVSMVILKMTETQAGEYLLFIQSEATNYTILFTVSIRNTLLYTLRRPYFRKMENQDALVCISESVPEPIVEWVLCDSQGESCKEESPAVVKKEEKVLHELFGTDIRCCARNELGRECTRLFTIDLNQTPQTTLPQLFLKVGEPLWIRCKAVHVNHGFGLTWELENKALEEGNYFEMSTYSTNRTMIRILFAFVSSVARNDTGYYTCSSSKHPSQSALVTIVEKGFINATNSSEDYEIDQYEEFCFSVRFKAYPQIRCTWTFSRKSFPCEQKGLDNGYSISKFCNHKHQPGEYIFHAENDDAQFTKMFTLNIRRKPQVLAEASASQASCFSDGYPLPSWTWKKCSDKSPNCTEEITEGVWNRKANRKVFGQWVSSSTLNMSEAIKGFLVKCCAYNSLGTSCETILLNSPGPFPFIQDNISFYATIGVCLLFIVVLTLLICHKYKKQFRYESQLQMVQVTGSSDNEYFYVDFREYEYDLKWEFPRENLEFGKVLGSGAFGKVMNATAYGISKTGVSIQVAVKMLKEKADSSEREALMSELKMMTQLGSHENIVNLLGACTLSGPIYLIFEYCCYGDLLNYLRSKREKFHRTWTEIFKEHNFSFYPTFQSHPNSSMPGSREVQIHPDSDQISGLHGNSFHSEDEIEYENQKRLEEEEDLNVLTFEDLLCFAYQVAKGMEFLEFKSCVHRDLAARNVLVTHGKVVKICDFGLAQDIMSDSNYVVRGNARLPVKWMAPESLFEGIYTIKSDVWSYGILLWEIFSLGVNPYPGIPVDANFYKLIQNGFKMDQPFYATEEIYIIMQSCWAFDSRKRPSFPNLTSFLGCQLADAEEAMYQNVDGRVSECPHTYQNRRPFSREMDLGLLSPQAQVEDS
Kind of assay: (§1) Selectivity interaction (KinomeScan (DiscoverX)) EUB0000045b FLT3.

Assay [3] deals with T3, Receptor-type tyrosine-protein kinase FLT3 (Homo sapiens), P36888 [N841I].
T3 sequence (whole entry): T2 sequence (whole entry) with Q834R, N841I
The assay is described as §1.

The subject of assay [4] is Receptor-type tyrosine-protein kinase FLT3 (Homo sapiens), P36888 [UNDEFINED MUTATION]. Described as §1.
Assay [5] deals with T4, Homeodomain-interacting protein kinase 4 (Homo sapiens) (UniProt Q8NE63).
T4 sequence (whole entry): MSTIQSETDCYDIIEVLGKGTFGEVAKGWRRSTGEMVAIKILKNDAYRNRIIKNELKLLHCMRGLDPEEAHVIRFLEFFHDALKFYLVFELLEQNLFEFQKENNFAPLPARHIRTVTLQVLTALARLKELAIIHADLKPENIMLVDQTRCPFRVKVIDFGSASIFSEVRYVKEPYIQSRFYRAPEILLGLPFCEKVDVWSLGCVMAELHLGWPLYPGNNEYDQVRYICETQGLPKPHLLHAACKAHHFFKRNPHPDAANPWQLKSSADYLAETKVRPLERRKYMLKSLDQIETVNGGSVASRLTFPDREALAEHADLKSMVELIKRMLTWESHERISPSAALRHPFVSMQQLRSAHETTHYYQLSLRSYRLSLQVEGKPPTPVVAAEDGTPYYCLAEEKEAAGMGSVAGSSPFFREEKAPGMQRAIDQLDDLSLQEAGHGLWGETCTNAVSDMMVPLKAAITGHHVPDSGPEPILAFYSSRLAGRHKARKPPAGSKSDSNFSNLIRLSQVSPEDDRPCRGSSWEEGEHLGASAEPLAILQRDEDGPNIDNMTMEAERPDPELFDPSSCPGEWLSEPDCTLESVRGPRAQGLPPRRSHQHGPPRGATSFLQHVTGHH
Kind of assay: Selectivity interaction (KinomeScan (DiscoverX)) EUB0001079a HIPK4. To be noted: at 1 µM.

Molecules are shown by their SMILES. Numbering of substitutions follows the chain as printed.

In turn, `Cc1cc(F)c(C(=O)Nc2cccc(-c3nncn3C(C)C)n2)cc1-n1cnc(C2CC2)c1` showed a % of control in assay [1] of 57%.

In the case of `C=CC(=O)Nc1cc(-n2c(=O)ccc3cnc4ccc(-c5ccc(NS(C)(=O)=O)cc5)cc4c32)ccc1C`, the % of control was found to be 100% in assay [2] (at 1 µM); 100% in assay [2] (at 10 µM); 85% in assay [3] (at 1 µM); 86% in assay [3] (at 10 µM); 99% in assay [4] (at 1 µM); 100% in assay [4] (at 10 µM).

In assay [5], `Nc1cnc(N2CCc3cc(S(=O)(=O)Nc4c(F)cc(Cl)cc4F)cc(N4CCCC4=O)c32)nc1` [TP-020n] came in with a % of control of 100%.

For the origin of these results see ChEMBL document CHEMBL5465560, “Selectivity Literature for EUbOPEN Chemogenomic Library” (2024).
